Measurements published in patent US20110144159A1, “ETHER BENZYLIDENE PIPERIDINE ARYL CARBOXAMIDE COMPOUNDS USEFUL AS FAAH INHIBITORS” (Pfizer Inc, priority 2008, published 2011).

Target: T1, Human FAAH (Homo sapiens, UniProt O00519)
T1 construct: made in house
T1 sequence (O00519 32-579 limits assumed): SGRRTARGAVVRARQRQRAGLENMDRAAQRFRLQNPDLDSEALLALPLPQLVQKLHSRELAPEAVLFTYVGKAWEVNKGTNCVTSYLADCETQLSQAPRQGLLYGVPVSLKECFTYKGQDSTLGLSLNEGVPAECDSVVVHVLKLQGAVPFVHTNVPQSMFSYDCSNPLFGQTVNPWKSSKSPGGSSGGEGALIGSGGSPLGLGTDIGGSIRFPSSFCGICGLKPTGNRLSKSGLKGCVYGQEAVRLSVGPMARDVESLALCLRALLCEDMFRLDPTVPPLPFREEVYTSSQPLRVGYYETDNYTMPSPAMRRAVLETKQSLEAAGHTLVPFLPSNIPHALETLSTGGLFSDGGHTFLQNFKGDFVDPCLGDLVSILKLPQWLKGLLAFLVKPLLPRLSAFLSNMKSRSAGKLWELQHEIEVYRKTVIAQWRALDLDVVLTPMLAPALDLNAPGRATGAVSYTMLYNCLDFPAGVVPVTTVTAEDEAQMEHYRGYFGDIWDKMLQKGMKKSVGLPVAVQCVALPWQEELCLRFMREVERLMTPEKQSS
Assay: FAAH assay (glutamate dehydrogenase-coupled, oleamide substrate, absorbance at 340 nm)
Assay type: biochemical
Settings: irreversible inhibition potency
Protocol: A FAAH assay may be carried out in 384-well clear polystyrene plates in a total volume of 50 μl per well. All percents are by volume. To each well was placed the reaction mixture (40 μl) containing 1-4 nM FAAH, 50 mM NaPi, pH 7.4, 3 mM α-ketoglutarate, 0.15 mM NADH, 7.5 U/ml glutamate dehydrogenase, 2 mM ADP, 1 mM EDTA, and 0.1% Triton X-100 (The concentration shown for each component was the final concentration in the assay). To this mixture was added 5 μl of a compound of Examples 1 to 20 at various concentrations prepared in 50% DMSO (or 5 μl 50% DMSO for controls). This was immediately followed by the addition of 5 μl oleamide (500 μM) dissolved in 75% EtOH/25% DMSO and the reaction mixture was mixed for 1.5 min. The final concentrations of DMSO and EtOH in the assay are each 7.5%. The reactions was then incubated at 30° C. and the absorbance at 340 nm was collected over a period of 90 min with readings taken in 30-second intervals using SpectraMax Plus^384 Microplate Spectrophotometer (Molecular Devices, Sunnyvale, Calif.). Human FAAH used in the assay was prepared as described in the patent application WO 2006/067613. The purity of the enzyme used was greater than 98% based on an analysis by SDS-polyacrylamide gel electrophoresis followed by Coomassie Blue staining.
Initial velocity data (V) is obtained from the slopes of the initial progressive curves. They are plotted as a function of substrate concentration and fit to the Michaelis-Menten equation (1) using Prism (GraphPad Software, Inc., San Diego, Calif.) software to obtain Km and Vmax values.
To obtain potencies of irreversible inhibitors, progressive curves consistent with first order inhibition kinetics (two-step irreversible inhibition mechanism) are fit to equation (2) by nonlinear least squares regressions to determine kobs values at each inhibitor concentration, where [P]t is the absorbance at time t, V0 is a constant related to the steady state rate of the uninhibited reaction, and kobs is the first order rate constant for enzyme inactivation. The inhibitor dissociation constant (Ki) and the first order rate
constant of enzyme inactivation at infinite inhibitor concentration (kinact) are then obtained by fitting the kobs vs. [I] curves to equation (3).

Molecule	hFAAH KInact/K [M⁻¹ s⁻¹]
4-(3-{[trans-4-(cyanomethyl)cyclohexyl]methoxy}benzylidene)-N-pyridazin-3-ylpiperidine-1-carboxamide [Example 96]	1470
4-[3-(1-methyl-2-phenoxyethoxy)benzylidene]-N-pyridazin-3-ylpiperidine-1-carboxamide [Example 90]	3971
4-{3-[2-(3-methoxyphenyl)ethoxy]benzylidene}-N-pyridazin-3-ylpiperidine-1-carboxamide [Example 85]	7770
4-{3-[(2,4-dimethyl-1,3-thiazol-5-yl)methoxy]benzylidene}-N-pyridazin-3-ylpiperidine-1-carboxamide [Example 69]	331
4-{3-[(2-methylpyridin-3-yl)methoxy]benzylidene}-N-pyridazin-3-ylpiperidine-1-carboxamide [Example 59]	328
CCOc1cccc(C=C2CCN(C(=O)Nc3cccnc3)CC2)c1 [Example 1, 4-(3-ethoxybenzylidene)-N-pyridin-3-ylpiperidine-1-carboxamide]	2020
COc1cccc(C=C2CCN(C(=O)Nc3cccnc3)CC2)c1 [Example 2, 4-(3-methoxybenzylidene)-N-pyridin-3-ylpiperidine-1-carboxamide]	973
O=C(Nc1cccnn1)N1CCC(=Cc2ccc3c(c2)OCO3)CC1 [Example 3, 4-(1,3-benzodioxol-5-ylmethylene)-N-pyridazin-3-ylpiperidine-1-carboxamide]	2870
O=C(Nc1cccnn1)N1CCC(=Cc2ccc3c(c2)OCCO3)CC1 [Example 4, 4-(2,3-dihydro-1,4-benzodioxin-6-ylmethylene)-N-pyridazin-3-ylpiperidine-1-carboxamide]	2770
O=C(Nc1cccnn1)N1CCC(=Cc2cccc(OC(F)(F)F)c2)CC1 [Example 5, N-pyridazin-3-yl-4-[3-(trifluoromethoxy)benzylidene]piperidine-1-carboxamide]	2250
COc1cccc(C=C2CCN(C(=O)Nc3cccnn3)CC2)c1 [Example 6, 4-(3-methoxybenzylidene)-N-pyridazin-3-ylpiperidine-1-carboxamide]	1480
O=C(Nc1cccnc1)N1CCC(=Cc2cccc(OC3CCCCC3)c2)CC1 [Example 7, 4-[3-(cyclohexyloxy)benzylidene]-N-pyridin-3-ylpiperidine-1-carboxamide]	1220
O=C(Nc1cccnc1)N1CCC(=Cc2cccc(OC3CCC3)c2)CC1 [Example 8, 4-[3-(cyclobutyloxy)benzylidene]-N-pyridin-3-ylpiperidine-1-carboxamide]	324
O=C(Nc1cccnn1)N1CCC(=Cc2cccc(OC3CCC3)c2)CC1 [Example 9, 4-[3-(cyclobutyloxy)benzylidene]-N-pyridazin-3-ylpiperidine-1-carboxamide]	531
O=C(Nc1cccnn1)N1CCC(=Cc2cccc(OC3CCCCC3)c2)CC1 [Example 10, 4-[3-(cyclohexyloxy)benzylidene]-N-pyridazin-3-ylpiperidine-1-carboxamide]	3300
O=C(Nc1cccnc1)N1CCC(=Cc2cccc(OC3CCCC3)c2)CC1 [Example 11, 4-[3-(cyclopentyloxy)benzylidene]-N-pyridin-3-ylpiperidine-1-carboxamide]	1900
O=C(Nc1cccnc1)N1CCC(=Cc2cccc(OC3CCCOC3)c2)CC1 (stereo not drawn) [Example 12, N-pyridin-3-yl-4-[3-(tetrahydro-2H-pyran-3-yloxy)benzylidene]piperidine-1-carboxamide]	907
O=C(Nc1cccnn1)N1CCC(=Cc2cccc(OC3CCCC3)c2)CC1 [Example 13, 4-[3-(cyclopentyloxy)benzylidene]-N-pyridazin-3-ylpiperidine-1-carboxamide]	2570
